# Values quoted from earlier work in publication PMC5766568, “Effective photo-enhancement of cellular activity of fluorophore-octaarginine antisense PNA conjugates correlates with singlet oxygen formation, endosomal escape and chromophore lipophilicity” (Scientific Reports, 2018).
# Like-named read-outs stand apart in the source and are kept apart here.
# Description: This could be due to a low quantum yield for singlet oxygen formation, which unfortunately is not available.
SMILES,log P (octanol/water),log P (octanol/water) (fluorophore alone)
"N=c1ccc2c(-c3ccc(C(=O)O)cc3C(=O)O)c3ccc(N)c(S(=O)(=O)O)c3oc-2c1S(=O)(=O)O [AF488, Alexa Fluor 488]",−1.44,–
"CN(C)c1ccc2c(-c3ccccc3C(=O)[O-])c3ccc(N(C)C)cc3[o+]c2c1 [TMR fluorophore, Tetramethylrhodamine]",–,2.92
